Experimental data taken from patent publication US20100196311A1, “METHODS AND COMPOSITIONS CONTAINING mTOR INHIBITORS FOR ENHANCING IMMUNE RESPONSES” (priority 2009, published 2010).

Assays:
mTOR = molecular target: T1, mTOR (Mus musculus, UniProt P26883+Q9JLN9); test: mTOR activity (mTOR, S6K and S6 phosphorylation by ICS) in stimulated OT-I cells; assay type: cell-based
T1 construct: endogenous in cells; host or cells: naive OT-I CD8+ T cells (TCR transgenic Rag2-/- mice) stimulated with Ag+B7.1 +/- IL-12
Description: FIG. 1. […] (A and B) OT-I cells stimulated with BOK (Ag+B7.1) (±) IL-12 were evaluated for (A) IFN-γ by ICS and (B) cytolytic activity (primary, 72 hr poststimulation; secondary, 24 hr postsecondary stimulation); ***p<0.0002. (C-E) OT-I cells stimulated with antigen (Ag) (the antigen is a peptide consisting of Ser Ile Ile followed by Asn Phe Glu which are followed by Lys and Lue (OVAp), used at 10 nM) plus B7.1 (100 μg/ml)(Ag+B7.1)(±) IL-12 (2 ng/ml) were evaluated by ICS at the indicated time points for (C) phosphorylated mTOR, (D) phosphorylated S6K, and (E) phosphorylated ribosomal S6. For mTOR inhibition, rapamycin (20 ng/ml) was added 30 min prior to addition of antigen, cytokine Data are representative of at least three independent experiments with similar outcomes. (Data are presented as mean±SEM.)
(§1) Stimulation of OT-1 Cells. Naive OT-I cells were stimulated with latex microspheres expressing H-2K^b/ovalbumin antigen and B7.1 according to known techniques. Naive OT-II cells were stimulated with anti-CD3-/anti-CD28-coated latex beads. In some experiments, the cell line derived from embryonic fibroblasts, namely, BOK (MEC.B7.SigOVA: expressing H-2K^b, OVAp and B7.1, were used as antigen-presenting cells to stimulate naive OT-I cells according to known techniques.
Although the kinase mTOR has been implicated as an integrator of various extracellular signals and a sensor for internal energy levels for determination of cell fate, the role for mTOR in integrating instructions that program naive CD8^+ T cells for type I effector differentiation is unclear. First, we tested the ability of Ag and B7.1 (Ag+B7.1) in the presence or absence of IL-12 to activate mTOR in OT-I cells at various time points after stimulation. Stimulation of naive OT-I cells with Ag+B7.1 induced mTOR phosphorylation (activation) by 2 hr, which was maximal at 12 hr and barely detectable by 48 hr (FIG. 1C). Remarkably, IL-12 addition enhanced Ag+B7.1-induced mTOR phosphorylation at 2 hr, which was maintained at 48 hr after stimulation (FIG. 1C). […] To verify that the induction of mTOR phosphorylation also led to its kinase activity, we monitored the kinetics of p70 S6K phosphorylation (Ser 371), a direct target of mTOR kinase activity. Although both Ag+B7.1 and Ag+B7.1 plus IL-12 induced similar amounts of S6K phosphorylation at 12 hr (maximal), the presence of IL-12 was able to sustain the S6K phosphorylation up to 48 hr (FIG. 10), in correlation with mTOR phosphorylation (FIG. 1C). […] The Ag+B7.1±IL-12 stimulation-induced S6K and S6 phosphorylation in OT-I cells was blocked by rapamycin (specific inhibitor of mTOR complex-1) (FIGS. 1D and 1E), thus confirming the ability of instructions to activate mTOR and its kinase activity in OT-I cells. […]

T-bet = T-bet mRNA and protein expression in OT-I cells; assay type: cell-based, mouse
Description: FIG. 4. IL-12-Enhanced mTOR Phosphorylation Is Essential for T-bet-Determined Type I Effector Maturation of CD8^+ T Cells. (A-C) OT-I cells stimulated with Ag+B7.1 (±) IL-12 and rapamycin were evaluated for (A) mRNA for T-bet at the indicated time points by RT-PCR, (B) T-bet protein expression at the indicated time-points by ICS, and (C) T-bet protein expression by ICS before and after antigen recall. **p<0.0035; ***p<0.0005. (D) WT and Tbx21^−1− OT-I cells were stimulated with Ag+B7.1 (±) IL-12 and evaluated for IFN-γ production at the primary and secondary phase. ***p<0.0001. (E and F) OT-I cells stimulated with Ag+B7.1 (±) IL-12 and rapamycin were transduced with T-bet-ER retroviral vector (±) 4-HT (10 nM) and evaluated by ICS for (E) T-bet protein expression by ICS and (F) IFN-γ at secondary phase (168 hr). (G and H) OT-I cells stimulated with Ag+B7.1 (±) insulin (1 U/ml) and rapamycin were evaluated by ICS for (G) S6K phosphorylation at 48 hr and (H) T-bet expression at 72 hr. Experiments shown are representative of at least three (A, B, D, E, and F) and two (C, G, and H) independent experiments with similar outcomes. (Data are presented as mean±SEM).
Retroviral Transduction and T-Bet Induction. T-bet-ER RV (Estrogen Responsive Retro Viral Vector) was cotransfected into Platinum-E cells together with the retroviral packaging vector pCL-Eco using LipoD293 DNA in vitro transfection reagent (SignaGen Laboratories) following the manufacturer's instructions. The medium was replaced the following day, and retroviral supernatant was collected 3 days after transfection. For transduction, naive OT-I cells stimulated for 24 hr, were suspended in retroviral supernatant containing polybrene (8 μg/ml; Sigma-Aldrich), and were spin-transduced at 2200 rpm for 90 min at 30° C. After spin-transduction, cells were cultured in fresh medium containing the same polarizing milieu as before, along with the addition of 4-HT (10 nM). At the end of 72 hr after initial stimulation, cells were washed thrice and maintained in the absence of any stimulation but in the presence of 4-HT and IL-7 (10 ng/ml).
Because the sustained expression of T-bet is necessary and sufficient for imprinting type I effector cell fate (Matsuda et al., 2007) and mTOR inhibition reversed IL-12 imprinted type I effector maturation in OT-I cells (FIG. 3), we next sought to determine whether rapamycin treatment affects T-bet expression in OT-I cells by performing kinetic analysis of T-bet mRNA expression (FIG. 4A). […] Moreover, inhibition of mTOR activity at 12 hr was also able to achieve loss in T-bet expression, similar to the observed loss in type I effector maturation (FIG. 3E).

OT-I cells = test: Type I effector functions (IFN-γ, CTL activity, Granzyme B) of OT-I cells, primary and secondary phase; assay type: cell-based, mouse; details: T-bet-ER-transduced; tamoxifen 10 nM; secondary phase
Description: FIG. 3. Sustained mTOR Activity Is Essential for Heritable Type I Effector Differentiation of CD8^+ T Cells. […] (D and E) OT-I cells were stimulated with Ag+B7.1 (±) IL-12 and rapamycin was added 12 hr after stimulation to evaluate cells for (D) S6K phosphorylation at 48 hr and (E) IFN-γ production at the primary and secondary phase. Experiments shown are representative of at least three (A and B) and two (C-E) independent experiments with similar outcomes. (Data are presented as mean±SEM.)
as §1
Evaluation of Secondary Antigen-Recall Responses In Vitro. For studying secondary antigen-recall response in vitro; OT-I cells harvested at 72 hr (primary) were washed thrice with medium and recultured (1×10^5/ml) for an additional 72 hr in a 24-well plate with IL-7 (10 ng/ml) only. At 144 hr the cells were harvested, washed thrice with medium, had numbers adjusted (5×10^5), and were restimulated with Ag/B7.1 only for an additional 24 hr (secondary stimulation). At 168 hr, the cells recovered were evaluated by flow cytometry and in vitro functional assay.
Because the presence of IL-12 during antigen stimulation augments mTOR activity and is deterministic for type I effector maturation, we analyzed whether sustained mTOR kinase activity is required for IL-12-programmed type I effector functions in OT-I cells. To do so, we stimulated naive OT-I cells with BOK±IL-12, and rapamycin and effector functions were analyzed from the primary and secondary activated OT-I pool. […] In addition, we observed a block in IL-12-induced IFN-γ production and CTL activity upon rapamycin treatment at 144 hr after primary stimulation.

[1] = system: target cells loaded with gp100 25-33 epitope; test: In vivo CTL assay with Pmel-1 cells in C57/BL6 mice; set-up: species or system mouse; details: temsirolimus administered with the vaccine; 14 hours
Source text: (§2) Consistent with this possibility, immunization with CA9+gp100 elicited a gp100-specific IFN-γ response from splenocytes using an ELISPOT assay. […] Further, specific killing increased with temsirolimus treatment in an in vivo CTL assay. Pmel-1 cells were adoptively transferred to C57/BL6 mice and immunized with gp100+CA9 with or without temsirolimus. Pmel-1 cells are transgenic cells that recognize the H-2 Db-restricted epitope corresponding to amino acids 25-33 of gp100.13 Target cells loaded with the H-2 Db-restricted epitope were injected and monitored 14 hours later by flow cytometry. […] When temsirolimus was administered with the vaccine, specific killing increased to 78%.

B16 melanoma = test: In vitro growth of B16 melanoma; assay type: cell-based, mouse
[2] = system: RENCA (renal cancer cells); test: In vitro growth of RENCA cells; assay type: cell-based, mouse
[3] = system: RENCA tumors expressing CA9; test: Renal cell carcinoma model: RENCA-CA9 tumors in Balb/c mice, vaccine with or without temsirolimus; assay type: in vivo, mouse
Description: FIG. 8. Renal Cell Carcinoma model. mTOR inhibition with temsirolimus enhanced the antitumor effects of a cancer vaccine (complex of hsp110 and CA9) in Balb/C mice 10 days after implantation of RENCA tumors expressing the tumor antigen CA9. Each line represents tumor growth in a single mouse. To generate the vaccine, CA9 (antigen target) and HSP110 (heat shock protein adjuvant) were complexed at 1:1 molar ratio by incubating at 43° C. for 30 min. On day 0, 2×10^5 Renca-CA9 cells were implanted into mice. The vaccine was administered i.d. on days 10, 17 and 24. Temsirolimus was inject i.p. on days 11 to 16, 18 to 23 and 25 to 30.
(§3) In the RCC model, a heat shock protein (HSP) served as an immune adjuvant and was complexed to a target antigen, carbonic anhydrase IX (CA9), which is expressed by 90% of clear cell RCCs. Balb/c mice were implanted with syngeneic RENCA tumors engineered to express CA9. In a treatment model targeting established tumor implants, mice were treated 10 days after implantation with tumor vaccine with or without temsirolimus (FIG. 8). […] In this model, CA9 was complexed to a melanoma antigen, gp100. C57/BL6 mice were implanted with syngeneic B16 tumors engineered to express gp100; mice were treated 10 days later with tumor vaccine. Similar results were obtained using a murine ovarian cancer model where the vaccine was augmented with rapamycin.

gp100 = test: gp100-specific IFN-γ ELISPOT of splenocytes after immunization; assay type: in vivo, mouse; details: concurrent treatment with temsirolimus; p<0.05
Source text: FIG. 10. Immunization with CA9+gp100 elicited a gp100-specific IFN-γ response measured using the ELISPOT assay.
as §2

[4] = system: B16 tumors expressing gp100; test: Melanoma model: B16-gp100 tumors in C57/BL6 mice, vaccine with or without temsirolimus; assay type: in vivo, mouse; details: vaccine gp100+CA9; treated 10 days after implantation
Description: FIG. 9. mTOR inhibition with temsirolimus enhanced the antitumor effects of a cancer vaccine (complex of gp100 and CA9) in C57/BL6 mice treated 10 days after implantation of B16 tumors expressing gp100. Each line represents tumor growth in a single mouse. To generate the vaccine, gp100 (antigen target) and CA9 (adjuvant) were complexed at 1:1 molar ratio by incubating at RT for 30 min. On day 0, 2×10^5 B16-gp100 cells were implanted into mice. The vaccine was administered i.d. on days 10, 17 and 24. Temsirolimus was inject i.p. on days 11 to 16, 18 to 23 and 25 to 30.
as §3

[5] = 2-DG added to Ag+B7.1 and IL-12-stimulated OT-I cells

## O=CC[C@@H](O)[C@H](O)[C@H](O)CO [2-DG, 2-deoxyglucose]
mTOR; [5]
  mTOR activity: loss
T-bet; [5]
  T-bet expression: loss

## CC/C(=C(\c1ccccc1)c1ccc(OCCN(C)C)cc1)c1ccccc1 [tamoxifen]
T-bet; tamoxifen 10 nM
  T-bet expression in T-bet-ER-transduced OT-I cells: substantial increase
OT-I cells
  IFN-γ production in rapamycin-treated IL-12-conditioned OT-I cells: restored

## CO[C@H]1C[C@@H]2CC[C@@H](C)[C@@](O)(O2)C(=O)C(=O)N2CCCC[C@H]2C(=O)O[C@H]([C@H](C)C[C@@H]2CC[C@@H](OC(=O)C(C)(CO)CO)[C@H](OC)C2)CC(=O)[C@H](C)/C=C(\C)[C@@H](O)[C@@H](OC)C(=O)[C@H](C)C[C@H](C)/C=C/C=C/C=C/1C [temsirolimus]
[1]
  Specific killing: 78%
B16 melanoma
  Growth in vitro: no effect
[2]
  Growth in vitro: direct effect
[3]; treatment from 10 days after implantation
  Tumor growth, agent alone: decrease
[3]; vaccine i.d. days 10, 17, 24, temsirolimus i.p. between
  Tumor growth, combination of vaccine and temsirolimus: greatest effect
gp100
  gp100-specific IFN-γ response from splenocytes: significantly augmented
[4]
  Tumor growth, combination of vaccine and temsirolimus: greatest effect

## insulin
mTOR; insulin (1 U/ml) added to Ag+B7.1-stimulated OT-I cells, 48 hr
  mTOR activity (S6 Kp): enhanced
T-bet; insulin (1 U/ml) added to Ag+B7.1-stimulated OT-I cells, 72 hr
  T-bet expression: increase
